In US20160221992A1, “DENDRITIC COMPOUNDS INCLUDING A CHELATING, FLUOROCHROME OR RECOGNITION AGENT, COMPOSITIONS INCLUDING SAME AND USES THEREOF” (UNIVERSITE DE STRASBOURG, priority 2013, published 2016):

How the values were obtained:
[1] = tested on: murine melanoma (B16FO line); experiment: Quantitative study of tumoral fixation and biodistribution of the radiolabeled compound (ex-vivo gamma counting after IV injection); assay type: in vivo, C57B16 mice; conditions: for Ratio (g)/Al TU/kidneys / Ratio (g)/Al Tu/Liver / Ratio (g)/Al Tu/Lungs / Ratio (g)/Al Tu/blood / Total Elimination (%/Al) / Tumor (g/Al %): Tc99m-radiolabeled, IV
Method: C57B16 mice bearing xenografts of murine melanoma (B16FO line) obtained by subcutaneous injection of 300 000 cells suspended in 100 μl of RPMI culture medium are injected subcutaneously in the back. The experiment is performed when the tumors are palpable. i.e. about 10 days […]. All the experiments (tumoral graft, injection and imaging) are carried out under isoflurane/oxygen (2.5%/2.5%) gas anesthesia.
Injection of 50 to 100 microliters of the radiolabeled solution, with a maximum activity of 20 MBQ, by direct intravenous injection (caudal vein). The activity of the empty syringe after injection+compress is also measured for calculating the actual activity injected (actual Ac injected=Ac normalized full syringe—normalized activity (empty syringe and compress). Normalization consists in calculating the theoretical activity at one and the same time chosen as reference (for example the time of injection). The measurements are performed on a regularly calibrated activity meter for medical use (Medisystem©).
(§1) Scintigraphic imaging is carried out using a dedicated small animal micro-5 imager SPECT-CT (BIOSCAN™). A planar scintigraphic image is obtained immediately after injection to verify absence of intracaudal stasis. If there is stasis, the mouse will be sacrificed at late times (24 or 48 h). Static scintigraphic images may be recorded at 2 h, 4 h, 24 h and 48 h (Imager micro-SPECT-CT BIOSCAN©).
This is done ex-vivo by gamma counting of the various samples, using a gamma well counter for medical use, regularly calibrated for the isotopes used (Tc-99m and In-111). The animals are euthanized according to the protocols allowed by the animal ethics committee at 2 h, 4 h, 24 h or 48 h. The main organs are removed (brain, spleen, kidneys, lungs, heart, alimentary canal, liver) as well as a fragment of skin, muscle, bone and a blood sample and the whole tumor. Each sample is weighed and its gamma activity is counted in a sample-changing well counter for dedicated medical use, calibrated for the radioelements used. The animal's carcass is also weighed after removing the tail; these samples are incinerated and their gamma activity is also measured. The gamma activity of the samples containing all the collected urine and the feces is also measured. The activity of each sample is normalized (relative to the time of injection), and the ratio of the activity of each sample is calculated relative to the total activity injected (=the sum of all of the activities measured except that of the tail), expressed in % per gram of tissue, for calculating the ratio of the activity present in the tumor relative to the main organs (liver, kidneys, lungs and blood). The percentage of the activity eliminated is calculated.
The mean values of all of the data for all of the mice whose data are exploitable are calculated, as well as after eliminating the animals with urinary excretion that is too quick (>50% at 2 h or 75% at 4 h, as well as the mice with tumors >2 g, as the existence of necrosis may distort the calculation of the ratio of fixation in the tumor).
The biodistribution data of the various dendrimer compounds coupled to the IFC01102 ligand (also called amine R) and to a chelating agent are compared with those of the ligand alone coupled to the DOTA chelating agent (compound AP045) and radiolabeled with the same radioelement. 8.5 Results with Compound APAG9-1 (Radiolabeled with Tc99m) The radiochemical purity is above 95%, according to the chromatographic profile obtained as described above (example 5). 12 animals were injected. The average activity injected is 3.5±2.4 MBq. 2 animals were euthanized at 2 h, 4 at 24 h and 48 h post-injection. Examples of planar image immediately post-injection and 2 hours post-injection are illustrated in FIG. 3.

[2] = Lymphatic drainage after intradermal injection in the hind paws (sentinel lymph node characterization, scintigraphy/SPECT); assay type: in vivo, mouse; conditions: 24 hours after intradermal injection at the two hind paws, Tc99m, 2.8 MBq
Method: as §1, with “performed” for “carried out”, “stasis.” for “stasis. If there is stasis, the mouse will be sacrificed at late times (24 or 48 h).”
Intradermal injection of 1 to 20 microliters of a suspension of radiolabeled dendrimers with a hypodermic syringe in the pad of the hindpaw of a nude mouse. A whole-body planar scintigraphic image of the mouse is obtained 5 minutes after injection to verify absence of passage of the compound through the blood. Acquisition of tomographic images (SPECT) every 30 minutes to monitor the lymphatic drainage of the compound and determine the time of disappearance of the signal in the popliteal lymph node. 9.3.a Injection of Compound X1 Labeled with Tc99m (Generation 2 Molecule)

[3] = 48 post-IV, first series (all animals)
[4] = 48 post-IV, second series (mice with too quick urinary secretion or too large tumor eliminated)
[5] = 2 h post-iv, first series (all animals)
[6] = 2 h post-iv, second series (mice with too quick urinary secretion or too large tumor eliminated)
[7] = 4 h post-IV, first series (all animals)
[8] = 4 h post-IV, second series (mice with too quick urinary secretion or too large tumor eliminated)
[9] = 24 h post-IV, first series (all animals)
[10] = 24 h post-IV, second series (mice with too quick urinary secretion or too large tumor eliminated)

## CCN(CC)CCNC(=O)c1cnc2cc(NC(=O)NCCOCCOCCNC(=O)CCOCCOCCOCCOCCOCCOCCOCCOCCOc3c(OCCOCCOCCOCCOC)cc(C(=O)NCCCNC(=O)C(CCCNC(=O)c4cccc(O)c4O)(CCCNC(=O)c4cccc(O)c4O)CCCNC(=O)c4cccc(O)c4O)cc3OCCOCCOCCOCCOC)ccc2n1 [APAG22-1]
[1]; [3]
  Ratio (g)/Al TU/kidneys: 1.74E−02
  Ratio (g)/Al Tu/Liver: 1.17E−01
  Ratio (g)/Al Tu/Lungs: 2.22E+00
  Ratio (g)/Al Tu/blood: 3.80E+00
  Total Elimination (%/Al): 7.36E+01 %/Al
  Tumor (g/Al %): 6.32E−01 g/Al %
[1]; [4]
  Ratio (g)/Al TU/kidneys: 1.74E−02
  Ratio (g)/Al Tu/Liver: 1.17E−01
  Ratio (g)/Al Tu/Lungs: 2.22E+00
  Ratio (g)/Al Tu/blood: 3.80E+00
  Total Elimination (%/Al): 7.32E+01 %/Al
  Tumor (g/Al %): 6.68E−01 g/Al %
[1]; [5]
  Ratio (g)/Al TU/kidneys: 3.36E−01
  Ratio (g)/Al Tu/Liver: 3.06E−01
  Ratio (g)/Al Tu/Lungs: 5.44E−01
  Ratio (g)/Al Tu/blood: 3.69E−01
  Total Elimination (%/Al): 2.59E+01 %/Al
  Tumor (g/Al %): 2.98E+00 g/Al %
[1]; [6]
  Ratio (g)/Al TU/kidneys: 4.75E−01
  Ratio (g)/Al Tu/Liver: 3.15E−01
  Ratio (g)/Al Tu/Lungs: 4.17E−01
  Ratio (g)/Al Tu/blood: 1.10E+00
  Total Elimination (%/Al): 1.46E+01 %/Al
  Tumor (g/Al %): 3.50E+00 g/Al %
[1]; [7]
  Ratio (g)/Al TU/kidneys: 1.09E−01
  Ratio (g)/Al Tu/Liver: 1.90E−01
  Ratio (g)/Al Tu/Lungs: 9.45E−01
  Ratio (g)/Al Tu/blood: 4.62E−01
  Total Elimination (%/Al): 3.58E+01 %/Al
  Tumor (g/Al %): 2.14E+00 g/Al %
[1]; [8]
  Ratio (g)/Al TU/kidneys: 1.09E−01
  Ratio (g)/Al Tu/Liver: 1.90E−01
  Ratio (g)/Al Tu/Lungs: 9.45E−01
  Ratio (g)/Al Tu/blood: 4.62E−01
  Total Elimination (%/Al): 3.58E+01 %/Al
  Tumor (g/Al %): 2.14E+00 g/Al %
[1]; [9]
  Ratio (g)/Al TU/kidneys: 2.11E−02
  Ratio (g)/Al Tu/Liver: 1.20E−01
  Ratio (g)/Al Tu/Lungs: 2.26E+00
  Ratio (g)/Al Tu/blood: 9.00E+00
  Total Elimination (%/Al): 6.45E+01 %/Al
  Tumor (g/Al %): 1.19E+00 g/Al %
[1]; [10]
  Ratio (g)/Al TU/kidneys: 2.11E−02
  Ratio (g)/Al Tu/Liver: 1.20E−01
  Ratio (g)/Al Tu/Lungs: 2.26E+00
  Ratio (g)/Al Tu/blood: 9.00E+00
  Total Elimination (%/Al): 5.45E+01 %/Al
  Tumor (g/Al %): 1.19E+00 g/Al %
[1]; APAG22-1: at two hours post-IV
  tumoral uptake compared with the ligand alone (AP045): higher
[1]; after IV injection of the radiolabeled compound
  time at which the maximum tumoral uptake is observed: 2 h
[1]; at 24 hours and 48 hours
  elimination compared with the ligand alone (AP045): far greater
[1]; mouse, in vivo
  Tumor to Liver ratio compared with the ligand alone (AP045): much higher

## COCCOCCOCCOCCOc1cc(COc2cc(OCc3cc(OCCOCCOCCOCCOC)c(OCCOCCOCCOCCOC)c(OCCOCCOCCOCCOC)c3)cc(C(=O)NCCCNC(=O)C(CCCNC(=O)c3cccc(O)c3O)(CCCNC(=O)c3cccc(O)c3O)CCCNC(=O)c3cccc(O)c3O)c2)cc(OCCOCCOCCOCCOC)c1OCCOCCOCCOCCOC [X1]
[2]
  hepatic activity: very low
  level of urinary elimination: very high
